The structures appear in SMILES notation. Several values for one entry are separate records, joined by “and”; a condition that tells them apart may be missing. Equal entries are not always repeated.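 Results reflect a 48-hour exposure of cells in 96-well plates to compound at five concentrations. GI50 marks 50% less growth. TGI denotes the concentration required for complete inhibition of growth.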

From PubChem BioAssay (NCI) come the findings set out here.

Holding throughout (assay): DTP human tumour cell line panel, 48 h
Assay [1] relates to MDA-N.
Assay [2] relates to NCI/ADR-RES ovarian.
Assay [3] has as its system T-47D breast.
The test system of assay [4] is DLD-1 colon.
The test system of assay [5] is DMS 114 small cell lung.
The subject of assay [6] is DMS 273 small cell lung.
Assay [7] concerns M19-MEL melanoma.
Assay [8] relates to XF 498 CNS.

One may read the TGI as the concentration giving total growth inhibition. A low value points to more potent growth arrest. `COc1cc(-c2oc3ccccc3c(=O)c2O)cc(OC)c1OC`: the total growth inhibition concentration (TGI) in assay [1], in assay [2] and in assay [3] was above 100 µM throughout.

As usually defined, the GI50 is the concentration that inhibits growth by half. In the case of `Cc1cccc(NC(=O)c2sc3nc4c(cc3c2N)CCCC4)c1C`, in assay [3], the GI50 is 0.505 µM and the concentration for total growth inhibition (TGI) is above 100 µM.

In the case of `N#CC(C#N)SCc1ccccc1`, the total growth inhibition concentration (TGI) in assay [4] was above 100 µM; in assay [5] it was 60.1 µM; in assay [6] it was above 100 µM; in assay [7] it was above 100 µM; in assay [2], above 100 µM; in assay [3] it was above 100 µM.

With `S=C(N/N=C/c1cc(Cl)cc(Cl)c1)NC12CC3CC(CC(C3)C1)C2`, in assay [2], the GI50 is 7.2 µM and the concentration for total growth inhibition (TGI) is above 100 µM. Moreover, in assay [3], the GI50 is 6.94 µM and the TGI was above 100 µM.

Consider `Cc1ccc(C(=O)Nc2ccc(CN3CCN(C)CC3)c(C(F)(F)F)c2)cc1C#Cc1cnc(N)c2ccc(F)cc12`, for which, in assay [2], the GI50 is 0.436 µM and the TGI is 2.09 µM. Further, in assay [3], the GI50 is 0.77 µM and the concentration for total growth inhibition (TGI) is 3.68 µM.

`COC(=O)C1=C(OC(=O)c2ccc(Cl)cc2)C(C(=O)OC)[C@@]2(O)[C@@H](C(=O)OC)C(c3ccccc3C(F)(F)F)C[C@@H]1[C@@H]2C(=O)OC` (some centres undefined): in assay [2], the GI50 was 3.11 µM and the TGI is above 100 µM. Also, in assay [3], the GI50 is 4.82 µM and the concentration for total growth inhibition (TGI) was above 100 µM.

For the compound `CC1(C)O[C@H]2OC3CCC(=O)CC3(O)[C@H]2O1` (some centres undefined), the TGI in assay [4], in assay [5], in assay [7], in assay [1], in assay [2] and in assay [3] was above 100 µM in each case. In assay [8], this compound had a TGI of 97.2 µM.

With `COc1ccc(Cl)cc1Nc1nc(C(F)(F)F)ccc1C(=O)NN`, in assay [2], the GI50 is 2.3 µM and the concentration for total growth inhibition (TGI) is above 22.5 µM. In assay [3], the GI50 is 5.06 µM and the TGI is above 100 µM.

Regarding `CC[C@H](C)[C@H](NC(=O)c1cnccn1)C(=O)N(C)[C@H](C[C@@H](OC(C)=O)c1nc(C(=O)N[C@@H](Cc2ccccc2)C[C@H](C)C(=O)OC)cs1)C(C)C`, the GI50 in assay [2] was 2.81 µM; in assay [3], 2.48 µM. For the same compound, the TGI in assay [2] and in assay [3] was above 33.3 µM throughout.

On to `C/C(=N\O)c1ccc(Nc2cc(-n3nnc4ccccc43)nc3ccccc23)cc1`, for which the GI50 is 5.22 µM in assay [2] and 8.23 µM in assay [3]. In addition, the TGI in assay [2] was 16.2 µM; in assay [3], above 34.7 µM.

On to `CC(=O)c1cccc(N(/C=C/C(=O)C(F)(F)F)CC(=O)c2ccc(Cl)cc2)c1`, for which the GI50 in assay [2] and in assay [3] was above 100 µM in each case. For the same compound, the TGI in assay [2] and in assay [3] was above 100 µM in each case.

Turning to `CNC(=O)Nc1ccc(-c2nc(N3CCOCC3)nc3c2cnn3C2CCOCC2)cc1`, in assay [2], the GI50 was 0.511 µM and the TGI is above 22.5 µM. For the same compound, in assay [3], the concentration for 50% growth inhibition (GI50) is 0.0419 µM and the TGI was 0.341 µM.

Regarding `Cc1cc(N(CCNc2ccnc3cc(Cl)ccc23)Cc2ccc3c(c2)OCO3)nc(N2CCN(C)CC2)n1`, in assay [2], the GI50 was 3.26 µM and the TGI stood at 14.7 µM. For the same compound, in assay [3], the GI50 is 2.05 µM and the total growth inhibition concentration (TGI) came out at 4.64 µM.

As for `C/C(=N/N(C=O)C[n+]1ccccc1)C(CN(CC(C)C)CC(C)C)C(=O)Nc1ccc(C)cc1C` (centres undefined), the TGI in assay [4] and in assay [5] was above 100 µM each time.

For the compound `Clc1ccc(COC(Cn2ccnc2)c2ccc(Cl)cc2Cl)cc1` (centres undefined), the concentration for total growth inhibition (TGI) in assay [1] was 27.4 µM and 25.4 µM; in assay [2], 7.56 µM and 23.3 µM and 24.9 µM; in assay [3], 8.76 µM and 23.4 µM and 19.9 µM. Also, the GI50 was 0.787 µM in assay [2] and 2.26 µM in assay [3].

With `CC(C)n1c(/C=C/[C@@H](O)C[C@@H](O)CC(=O)O)c(-c2ccc(F)cc2)c2ccccc21`, in assay [2], the GI50 was 0.554 µM and 0.845 µM; the TGI was above 100 µM. In addition, in assay [3], the GI50 was 14.2 µM and 13.8 µM; the TGI was above 100 µM.

Consider `O=C(Nc1ccc(OC(F)(F)F)cc1)c1sccc1NCc1ccnc2ccccc12`, for which, in assay [2], the GI50 was 2.81 µM and the TGI was above 100 µM. Also, in assay [3], the GI50 was 2.48 µM and the TGI is above 95.9 µM.

Take `NS(=O)(=O)c1ccc(N2Cc3cc(Cl)ccc3OC3=C2C(=O)N(CC2CCCCC2)C3=O)cc1`: in assay [2], the GI50 was 1.74 µM and the total growth inhibition concentration (TGI) stood at 5.05 µM. Besides, in assay [3], the GI50 was 0.365 µM and the TGI worked out at 1.86 µM.

On to `CSc1ccc(C2=Nn3c(nnc3-c3ccc(F)c(Cl)c3)SC2)cc1`, for which, in assay [2], the GI50 was 5.17 µM and the TGI was found to be 22.6 µM. In assay [3], the GI50 was 71 µM and the TGI was above 100 µM.

On to `CCOC(=O)c1c(NC(=O)c2ccc(C(C)C)cc2)sc2c(CN(C)C)c(O)ccc12`, for which, in assay [2], the GI50 was 1.89 µM and the TGI is 4.52 µM. For the same compound, in assay [3], the GI50 was 2.01 µM and the concentration for total growth inhibition (TGI) came to 5.17 µM.

Consider `C#C[C@]1(O)CC[C@H]2[C@@H]3CC=C4c5nc(Nc6ccccn6)sc5CC[C@]4(C)[C@H]3CC[C@@]21C`, for which the figures for the GI50 in assay [2] and in assay [3] were 1.72 µM and 1.81 µM, respectively. The concentration for total growth inhibition (TGI) stood at 6.1 µM in assay [2] and 5.98 µM in assay [3].

For the compound `CON(C)C(=O)C(C)NC(=O)OCc1ccccc1` (centres undefined), the concentration for total growth inhibition (TGI) in assay [1] and in assay [2] was above 100 µM throughout.

On to `C=C1C(=O)O[C@@H]2C[C@@]3(C)CC(=O)C=C(C)[C@@H]3C[C@H]12`, for which the values for the TGI in assay [1], in assay [2] and in assay [3] were 17.2 µM, 40.4 µM and 28.3 µM, respectively.

Regarding `CCN(c1ccc(CO)c(Cl)c1)C(C)c1ccc(F)cc1` (centres undefined), in assay [2], the GI50 was 14.5 µM and the total growth inhibition concentration (TGI) turned out to be 31.2 µM. In assay [3], the GI50 was 4.22 µM and the TGI stood at 18.2 µM.
